{
  "source": "paper PMC5738391",
  "about": "“Three classes of ligands each bind to distinct sites on the orphan G protein-coupled receptor GPR84” (Scientific Reports, 2017)",
  "key": {"[1]": {"biological_target": "GPR84-Cys^352Ile Gαi2 fusion protein (Homo sapiens, UniProt Q9NQS5)", "sequence (Q9NQS5 2-396)": "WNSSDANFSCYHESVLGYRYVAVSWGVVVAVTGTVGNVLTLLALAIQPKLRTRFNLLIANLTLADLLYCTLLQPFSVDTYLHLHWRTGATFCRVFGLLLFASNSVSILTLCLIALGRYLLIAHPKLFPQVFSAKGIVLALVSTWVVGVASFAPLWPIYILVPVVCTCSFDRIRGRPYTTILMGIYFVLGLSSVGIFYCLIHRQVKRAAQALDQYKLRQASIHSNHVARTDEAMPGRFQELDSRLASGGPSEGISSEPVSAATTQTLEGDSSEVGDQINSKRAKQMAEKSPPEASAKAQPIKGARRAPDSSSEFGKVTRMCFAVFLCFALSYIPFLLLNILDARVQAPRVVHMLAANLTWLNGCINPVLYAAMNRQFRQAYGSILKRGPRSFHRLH", "test": "[3H]G9543 radioligand binding (saturation and displacement), GPR84-Cys352Ile Gαi2 fusion protein", "parameters": "Cys352Ile Gαi2 (fusion partner, same polypeptide); expressed in transfected cells; host or cells: membranes of Flp-In T-REx 293 cells, doxycycline-induced", "conditions": "displacement assay", "description": "[^3H]G9543 is an analog of compounds 104, 107 and 161 with the same characteristic 2-(substituted-alkoxy)-9-substituted-6,7-dihydro-pyrimido[6,1-a]isoquinolin-4-one chemotype. […] Binding was initiated by the addition of membranes (5 µg of protein per tube). All assays were performed at 25 °C for 1 h before termination by the addition of ice-cold phosphate-buffered saline and vacuum filtration through GF/C glass filters using a 24-well Brandel cell harvester (Alpha Biotech, Glasgow, UK). Each reaction tube was washed three times with ice-cold PBS. The filters were allowed to dry for 2–3 h and then placed in 3 ml of Ultima Gold^TM XR. Radioactivity was quantified by liquid scintillation spectrometry. Specific binding was defined as the difference between binding detected in the presence and absence of 1 µM compound 104.\n(§1) All data are presented as means ± SEM of at least three independent experiments. Data analysis and curve fitting was carried out using the GraphPad Prism software package version 5.0b (GraphPad, San Diego). For functional assays the concentration-response data were plotted on a log axis, with the untreated vehicle control plotted at 1 log unit lower than the lowest ligand concentration, and fitted to a three parameter sigmoidal curve with the Hill slope constrained to equal 1. In case of inhibition experiments with antagonists an equivalent analysis was followed to fit an inverse sigmoidal curve. To perform the statistical analysis of curve parameters, data from multiple experiments were fitted independently and resulting curve fit values were analysed with indicated tests. For radioligand binding data, saturation binding curves were generated by fitting the specific binding, which was obtained by subtracting non-specific from total binding, to a one site specific binding model that allows calculation of Kd values for the radioligand at wild type and mutant receptors. To determine affinity of unlabelled ligands, data obtained in displacement assays were fit to an inverse three parameter sigmoidal curve constrained by radioligand affinity and concentration to allow for Ki calculation."}, "[2]": {"biological_target": "T1, human GPR84 (FLAG-hGPR84-eYFP) (Homo sapiens, UniProt Q9NQS5)", "T1 construct": "expressed in transfected cells", "T1 sequence (Q9NQS5 whole entry)": "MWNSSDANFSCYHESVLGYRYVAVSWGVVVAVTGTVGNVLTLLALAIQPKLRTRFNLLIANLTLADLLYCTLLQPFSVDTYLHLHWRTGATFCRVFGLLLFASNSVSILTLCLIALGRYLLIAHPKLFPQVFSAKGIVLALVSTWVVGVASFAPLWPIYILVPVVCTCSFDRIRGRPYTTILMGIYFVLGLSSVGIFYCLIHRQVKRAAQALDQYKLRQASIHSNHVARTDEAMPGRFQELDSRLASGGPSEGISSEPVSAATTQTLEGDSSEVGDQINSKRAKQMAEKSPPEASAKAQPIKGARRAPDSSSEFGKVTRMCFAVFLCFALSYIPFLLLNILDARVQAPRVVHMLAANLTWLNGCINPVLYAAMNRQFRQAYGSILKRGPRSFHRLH", "test": "[35S]GTPγS binding, membranes of cells expressing FLAG-hGPR84-eYFP", "format": "biochemical", "description": "Membranes were generated from Flp-In T-REx HEK293 cells treated with 100 ng/mL doxycycline to induce expression of the receptor construct of interest. Cells were washed with ice-cold phosphate-buffered saline, removed from dishes by scraping and centrifuged at 3000 rpm for 5 min at 4 °C. Pellets were resuspended in TE buffer (10 mM Tris-HCl, 0.1 mM EDTA; pH 7.5) containing a protease inhibitor mixture (Roche Applied Science, West Sussex, UK) and homogenized with a 5 ml hand-held homogenizer. This material was centrifuged at 1500 rpm for 5 min at 4 °C and the supernatant was further centrifuged at 50000 rpm for 45 min at 4 °C. The resulting pellet was resuspended in TE buffer and protein content was assessed using a BCA protein assay kit (Pierce, Fisher Scientific, Loughborough, UK).\nThe reaction was then initiated with addition of [^35S]GTPγS (50 nCi per tube), and the reaction was terminated after 45 minutes incubation at 30 °C by rapid filtration through GF/C glass filters using a 24-well Brandel cell harvester (Alpha Biotech, Glasgow, UK). […] Dried filters were added to 3 mL of Ultima Gold^TM XR (PerkinElmer Life Sciences, Beaconsfield, UK) and [^35S]GTPγS binding was determined by liquid scintillation spectrometry.\nas §1, with “For functional assays the concentration-response data were plotted on a log axis, with the untreated vehicle control plotted at 1 log unit lower than the lowest ligand concentration, and fitted to a three parameter sigmoidal curve with the Hill slope constrained to equal 1.” left out"}, "[3]": {"test_system": "wild type GPR84", "parameters": "method as in PMID 25425658", "conditions": "cited from earlier work"}, "[4]": {"test_system": "patients with ulcerative colitis", "parameters": "method as in doi:10.1093/ecco-jcc/jjx002.734", "conditions": "cited from earlier work"}},
  "data": [
    {"smiles": "O=c1nc(OC[C@H]2COCCO2)cc2n1CCc1cc(OCc3noc(C4CC4)n3)ccc1-2", "note": "[Compound 104, 9-(5-cyclopropyl-[1,2,4]oxadiazol-3-ylmethoxy)-2-((R)-1-[1,4]dioxan-2-ylmethoxy)-6,7-dihydro-pyrimido[6,1-a]isoquinolin-4-one]", "values": [
      {"measurement": "ability to compete with [3H]G9543 binding", "setting": "[1]", "value": "competed fully and effectively"},
      {"measurement": "Ki", "setting": "[1]; read-out: pKi, competition with [3H]G9543 (converted)", "value": 1.86, "unit": "nM"},
      {"measurement": "ability to limit [35S]GTPγS binding induced by EC80 concentrations of C10 (50 μM), embelin (3 μM) and DIM (5 μM)", "setting": "[2]", "value": "more potent than 161"}
    ]},
    {"smiles": "CCCCCCCCCCN", "note": "[decylamine]", "values": [
      {"measurement": "response of wild type GPR84", "setting": "[3]", "value": "failed to respond"}
    ]},
    {"smiles": "O=c1nc(OC[C@@H]2COCCO2)cc2n1CCc1cc(C#CC3CC3)ccc1-2", "note": "[GLPG1205]", "values": [
      {"measurement": "efficacy in patients with ulcerative colitis", "setting": "[4]; 12 weeks of chronic dosing", "value": "did not show efficacy"},
      {"measurement": "safety and tolerability", "setting": "[4]; patients with ulcerative colitis", "value": "safe and tolerable"}
    ]}
  ]
}
